Measurements published in patent US20200339509A1, “Non-Coordinating Anion Type Indolinium Activators in Aliphatic and Alicyclic Hydrocarbon Solvents” (ExxonMobil Chemical Patents Inc., priority 2019, published 2020).
Several values for one entry are separate records, joined by “and”; a condition that tells them apart may be missing. Equal entries are not always repeated.

Key:
[1] = Propylene homopolymerization in parallel pressure reactor with the indicated activator; conditions: propylene polymerization; 30 nmol catalyst MCN-1, 1.1 equivalents activator, 100° C., 150 psi propylene
Protocol: Solutions of the metal complexes and activators were prepared in a drybox using toluene or methylcyclohexane. Concentrations were typically 0.2 mmol/L. Tri-n-octylaluminum (TNOAL, neat, AkzoNobel) was used as a scavenger as indicated. Concentration of the TNOAL solution in toluene ranged from 0.5 to 2.0 mmol/L.
Polymerizations were carried out in a parallel pressure reactor according to common laboratory techniques, as generally described in U.S. Pat. Nos. 6,306,658; 6,455,316; 6,489,168; WO 00/09255; consistent with the procedures described by Murphy, V. et al. (2003) “A Fully Integrated High-Throughput Screening Methodology for the Discovery of New Polyolefin Catalysts: Discovery of a New Class of High Temperature Single-Site Group (IV) Copolymerization Catalysts,” J. Am. Chem. Soc., v. 125, pp. 4306-4317, each of which is fully incorporated herein by reference. The experiments were conducted in an inert atmosphere (N2) drybox using autoclaves equipped with an external heater for temperature control, glass inserts (internal volume of reactor=23.5 mL for C2 and C2/C8; 22.5 mL for C3 runs), septum inlets, regulated supply of nitrogen, ethylene and propylene, and equipped with disposable PEEK mechanical stirrers (800 RPM). The autoclaves were prepared by purging with dry nitrogen at 110° C. or 115° C. for 5 hours and then at 25° C. for 5 hours. Although the specific quantities, temperatures, solvents, reactants, reactant ratios, pressures, and other variables are frequently changed from one polymerization run to the next, the following describes a typical polymerization performed in a parallel pressure reactor. […]
The catalyst and activator solutions for the comparative data were all prepared in toluene. […] The resultant polymer was analyzed by Rapid GPC (see below) to determine the molecular weight, by FT-IR (see below) to determine percent octene incorporation, and by DSC (see below) to determine melting point (Tm).
Equivalence is determined based on the mole equivalents relative to the moles of the transition metal in the catalyst complex. […]

[2] = Solubility study of the activators (saturated solution in aliphatic/alicyclic solvent); format: physicochemical; conditions: 25° C., concentration of saturated solution; for Solubility limit in MeCy: MeCy (methylcyclohexane)
Protocol: The solubility was determined using a saturated solution of the activator prepared by slowly adding the solvent to a pre-weighed amount of the activator. The final volume was determined as the minimum amount of solvent required to convert the heterogenous mixture into a homogeneous solution. The concentration of the saturated solution is presented in millimoles of activator per liter of solution (mM). Alternatively, a mixture of the activator was prepared by adding the solvent to an excess amount of activator. The resulting slurry was separated from the undissolved solids by decanting the mixture into a tared vial. Solvent was then added dropwise until the mixture became a homogeneous solution. The mass of the final solution was measured and then the solvent was evaporated to dryness to obtain the mass of the activator. The concentration of the saturated solution is presented in millimoles of activator per liter of solution (mM).

Row | Compound | activity [1] | Solubility limit in MeCy [2] | Solubility limit in i-hexane [2]
1 | 1-methylindolinium tetrakis(heptafluoronaphthalen-2-yl)borate [MIH-BF28] | 64 kg/mmol/h and 39 kg/mmol/h and 46 kg/mmol/h |  | 
2 | C[NH+](C)c1ccccc1.Fc1c(F)c(F)c([B-](c2c(F)c(F)c(F)c(F)c2F)(c2c(F)c(F)c(F)c(F)c2F)c2c(F)c(F)c(F)c(F)c2F)c(F)c1F [DMAH-BF20, N,N-Dimethylanilinium tetrakis(pentafluorophenyl) borate, reference compound] |  | <100 µM | <100 µM
3 | CCCCCCCCCCC1C[NH+](C)c2ccccc21.Fc1c(F)c(F)c2c(F)c([B-](c3c(F)c(F)c4c(F)c(F)c(F)c(F)c4c3F)(c3c(F)c(F)c4c(F)c(F)c(F)c(F)c4c3F)c3c(F)c(F)c4c(F)c(F)c(F)c(F)c4c3F)c(F)c(F)c2c1F [MDIH-BF28, 3-decyl-1-methylindolin-1-ium BF-28] |  | 10100 µM | 1000 µM
4 | C[NH+]1CCc2ccccc21.Fc1c(F)c(F)c([B-](c2c(F)c(F)c(F)c(F)c2F)(c2c(F)c(F)c(F)c(F)c2F)c2c(F)c(F)c(F)c(F)c2F)c(F)c1F [MIH-BF20, 1-methylindolinium tetrakis(pentafluorophenyl) borate] | 7 kg/mmol/h | 5300 µM | <100 µM
5 | N,N-dimethyl anilinium tetrakis(heptafluoronaphthalen-2-yl)borate [DMAH-BF28, reference compound] | 126 kg/mmol/h and 182 kg/mmol/h and 196 kg/mmol/h and 164 kg/mmol/h |  | 
